The target in the assay is T1, nuclease P1 (P1 nuclease) (Penicillium citrinum, UniProt P24289).
T1 construct: commercial enzyme (New England Biolabs)
T1 sequence (P24289 1-270): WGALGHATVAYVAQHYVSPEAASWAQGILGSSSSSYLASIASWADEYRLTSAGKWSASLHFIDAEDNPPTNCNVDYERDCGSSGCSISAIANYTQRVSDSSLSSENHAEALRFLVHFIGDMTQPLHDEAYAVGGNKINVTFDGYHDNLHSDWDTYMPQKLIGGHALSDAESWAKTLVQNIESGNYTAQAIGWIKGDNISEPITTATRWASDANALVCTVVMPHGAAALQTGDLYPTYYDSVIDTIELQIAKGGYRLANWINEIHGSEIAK
Briefly: HPLC product analysis. The format is biochemical. The conditions noted are these: 50 mM sodium acetate pH 5.5, 37 C, 1 h, 100 uM substrate.

As for `Nc1ncnc2c1ncn2[C@@H]1O[C@H](COP(=O)(O)O[C@H]2[C@@H](O)[C@H](n3cnc4c(N)ncnc43)O[C@@H]2CSCC[C@H](N)C(=O)O)[C@@H](O)[C@H]1O` [SAH-AMP], the HPLC product analysis result is listed as “SAH-AMP was completely degraded by nuclease P1”. Take `C[S+](CC[C@H](N)C(=O)O)C[C@H]1O[C@@H](n2cnc3c(N)ncnc32)[C@H](O)[C@@H]1OP(=O)(O)OC[C@H]1O[C@@H](n2cnc3c(N)ncnc32)[C@H](O)[C@@H]1O` (some centres unmarked) [SAM-AMP]: the HPLC product analysis result (partial degradation) is “we observed only partial degradation of SAM-AMP”.

Source of the values: publication PMC10600005 (Nature, 2023).
